Data published in patent publication US6596773B2, “Phenyl substituted pyridine and benzene derivatives” (Hoffmann-La Roche Inc., priority 1999, dated 2003).

System: not given
Test: not given
Details: not given

Q: Which melting point does the source give for `CN1CCN(c2cc(C(=O)c3ccccc3)c(C(=O)N(C)Cc3cc(C(F)(F)F)cc(C(F)(F)F)c3)cn2)CC1.Cl` here?
A: The melting point was 105 °C (dec.).

Q: Which melting point does the source give for `CN(C(=O)C(C)(C)c1cc(C(F)(F)F)cc(C(F)(F)F)c1)c1ccc(Cl)cc1C(=O)c1ccccc1` [Example 2, N-(2-Benzoyl-4-chloro-phenyl)-2-(3,5-bis-trifluoromethyl-phenyl)-N-methyl-isobutyramide] here?
A: Its melting point is 89 to 91 °C.

Q: For `CN1CCN(c2cc(C(=O)c3ccccc3Cl)c(C(=O)N(C)Cc3cc(C(F)(F)F)cc(C(F)(F)F)c3)cn2)CC1.Cl`, which melting point is on record?
A: Its melting point is 145 °C (dec.).

Biological target: T1, human NK1 receptor (Homo sapiens, UniProt P25103)
T1 construct: expressed in transfected cells; host or cells: CHO cells infected using the Semliki virus expression system; membrane suspension
T1 sequence (P25103 whole entry): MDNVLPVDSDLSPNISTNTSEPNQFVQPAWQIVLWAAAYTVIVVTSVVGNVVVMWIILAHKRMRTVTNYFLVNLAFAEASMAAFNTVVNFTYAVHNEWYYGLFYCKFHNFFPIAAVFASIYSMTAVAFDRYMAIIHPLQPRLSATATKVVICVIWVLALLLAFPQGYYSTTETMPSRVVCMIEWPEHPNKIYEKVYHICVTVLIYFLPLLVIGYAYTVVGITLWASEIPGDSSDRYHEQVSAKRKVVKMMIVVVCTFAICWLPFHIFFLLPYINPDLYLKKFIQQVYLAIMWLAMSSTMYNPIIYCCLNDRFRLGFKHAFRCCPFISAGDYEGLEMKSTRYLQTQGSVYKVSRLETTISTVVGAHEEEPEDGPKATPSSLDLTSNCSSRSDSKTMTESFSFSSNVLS
Test: NK1 receptor binding assay, displacement of [3H]substance P
Details: human NK1 receptors in CHO cells (Semliki virus expression system), [3H]substance P 0.6 nM, 60 min at room temperature; read-out: affinity to the NK-1 receptor, given as pKi (converted)
Procedure: The affinity of test compounds for the NK1 receptor was evaluated at human NK1 receptors in CHO cells infected with the human NK1 receptor (using the Semliki virus expression system) and radiolabelled with [3H]substance P (final concentration 0.6 nM). Binding assays were performed in HEPES buffer (50 mM, pH 7.4) containing BSA (0.04%) leupeptin ([…]), MnCl2 (3 mM) and phosphoramidon ([…]). Binding assays consisted of […] of membrane suspension (1.25×10^5 cells/assay tube), 0.125 ml of buffer of displacing agent and […] of [3H]substance P. Displacement curves were determined with at least seven concentrations of the compound. The assay tubes were incubated for 60 min at room temperature after which time the tube contents were rapidly filtered under vacuum through GF/C filters presoaked for 60 min with PEI (0.3%) with 2×2 ml washed of HEPES buffer (50 mM, pH 7.4). The radioactivity retained on the filters was measured by scintillation counting. All assays were performed in triplicate in at least 2 separate experiments.

Q: For `Cc1ccccc1Oc1cc(N2CCOCC2)ncc1C(=O)N(C)Cc1cc(C(F)(F)F)cc(C(F)(F)F)c1` [Example 31, N-(3,5-Bis-trifluoromethyl-benzyl)-N-methyl-6-morpholin-4-yl-4-o-tolyloxy-nicotinamide], which Ki is on record?
A: Its Ki is 2.75 nM.

Q: For `CN(Cc1cc(C(F)(F)F)cc(C(F)(F)F)c1)C(=O)c1cnc(N2CCOCC2)cc1Oc1ccccc1` [Example 28, N-(3,5-Bis-trifluoromethyl-benzyl)-N-methyl-6-morpholin-4-yl-4-phenoxy-nicotinamide], which Ki is on record?
A: The Ki was 13.8 nM.

Q: For `CN(Cc1cc(C(F)(F)F)cc(C(F)(F)F)c1)C(=O)c1cnc(N2CCOCC2)cc1Oc1ccccc1Cl` [Example 29, N-(3,5-Bis-trifluoromethyl-benzyl)-4-(2-chloro-phenoxy)-N-methyl-6-morpholin-4-yl-nicotinamide], which Ki is on record?
A: Its Ki is 1.74 nM.

Q: Which Ki does the source give for `CN1CCN(c2cc(Oc3ccccc3Cl)c(C(=O)N(C)Cc3cc(C(F)(F)F)cc(C(F)(F)F)c3)cn2)CC1` [Example 30, N-(3,5-Bis-trifluoromethyl-benzyl)-4-(2-chloro-phenoxy)-N-methyl-6-(4-methyl-piperazin-1-yl)-nicotinamide] here?
A: The Ki was 3.8 nM.
